# According to patent publication EP2692332A2, “Composition for the treatment of callus, corns, moles, telangiectasias, and psoriasis” (Unigroup ApS, priority 2012, dated 2014):
# Format: physicochemical
# Settings: at higher concentrations than salicylic acid
compound,measurement,value
O=CO [formic acid],miscibility with ethyl lactate,miscible
